Experimental data taken from patent US5885994A, “Tetrahydroquinoxaline dopamine D4 receptor antagonists” (Warner-Lambert Company, priority 1998, dated 1999).

Columns and labels:
[1] = target: T1, human DA D4.2 receptor (Homo sapiens, UniProt P21917, DEL265-296); experiment: [3H]Thymidine uptake assay (block of quinpirole stimulation in CHO pro-5 cells transfected with human DA D4.2 receptor); type: cell-based; conditions: human D4.2, quinpirole-stimulated uptake
T1 construct: expressed in transfected cells
T1 sequence (P21917 with tags, fused parts or gaps DEL265-296): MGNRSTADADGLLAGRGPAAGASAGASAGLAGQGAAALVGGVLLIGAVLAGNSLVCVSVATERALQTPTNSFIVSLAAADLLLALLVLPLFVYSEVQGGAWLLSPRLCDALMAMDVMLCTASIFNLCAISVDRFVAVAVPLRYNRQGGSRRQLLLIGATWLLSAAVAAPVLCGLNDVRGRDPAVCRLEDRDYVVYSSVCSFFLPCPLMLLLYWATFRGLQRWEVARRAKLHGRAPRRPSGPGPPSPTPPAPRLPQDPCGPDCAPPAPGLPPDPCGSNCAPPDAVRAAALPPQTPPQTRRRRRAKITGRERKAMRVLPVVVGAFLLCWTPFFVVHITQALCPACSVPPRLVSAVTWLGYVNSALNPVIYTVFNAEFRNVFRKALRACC
Method: Compounds were tested for their ability to bind to dopamine (DA) receptors as measured by their inhibition of [^3 H]spiperone binding to the human D2, and D4.2 receptors (Pugsley, et al., 1995). The ability of test compounds to block the stimulation of [^3 H]thymidine uptake in CHO pro-5 cells transfected with human DA D4.2 receptor cDNA caused by the DA agonist quinpirole was employed as an in vitro measure of DA receptor antagonist activity (Pugsley, et al., 1995). The effects of compounds on synthesis rates of rat brain catecholamines were estimated by measuring the accumulation of [3-(3,4-dihydroxyphenyl)-L-alanine (DOPA) after administration of the L-aromatic amino acid decarboxylase inhibitor, NSD 1015 (Pugsley, et al., 1995).
[^3 H]Thymidine Uptake Assay
The effects of test compounds on [^3 H]thymidine uptake were carried out essentially as described by Pugsley, et al., 1995. CHO p-5 cells transfected with human D4.2 cDNA were seeded into 96-well plates at a density of about 5000 cells/well and were grown at 37° C. in a minimum essential medium (aMEM, Gibco) with 10% calf serum for 2 days. The wells were then rinsed three times with serum-free media. Fresh media ([…]) was added along with […] of test compound in water or vehicle alone. Eight wells of each plate received […] of aMEM with 10% fetal calf serum. After culture for 16 to 17 hours, [3H]thymidine ([…]) was added for 4 hours. The cells were trypsinized and harvested onto filter mats with a 96-well Brandel cell harvester. The filters were counted in a Beta-Plate scintillation counter.

[2] = system: apomorphine-induced disruption of prepulse inhibition; experiment: Prepulse inhibition of acoustic startle model in rats; type: in vivo; conditions: rat, 30 mg/kg IP
From the text: PROTOCOL FOR THE PREPULSE INHIBITION OF ACOUSTIC STARTLE MODEL IN RATS
Prepulse inhibition (PPI) of acoustic startle is a form of sensorimotor gating which occurs when a weak stimulus precedes a startling stimulus, resulting in diminution of the startle response amplitude. […] Thus, an animal model utilizing this phenomenon would be quite useful in the study of known and potential antipsychotic agents.
This indicates a possible role of DA D2-like receptor stimulation in reducing sensorimotor gating in the rat.
Male Sprague-Dawley rats from Harlan Labs (180-280 g) were housed in groups of five rats per cage and maintained on a 12-hour light/dark cycle with free access to food pellets and water. […]
Eight startle chambers (SR-LAB, San Diego Instruments) were used, each consisting of a Plexiglas cylinder resting on a Plexiglas frame within a ventilated sound-attenuating enclosure. […] The average responses during the 100 msec record window (100×1 msec readings) were recorded by microcomputer and interface assembly (San Diego Instruments). […] Sound levels were assessed with a Radio Shack dB meter. […]
The test session in all experiments consisted of a total of 90 trials after a 5-minute test acclimation period of 70 dB white noise. […] When the prepulse was paired with the 120 dB pulse, no obvious acoustic difference could be detected by the human ear as compared to the 120 dB pulse alone. […]

For `Cc1ccc(N2CCN(Cc3ccc4c(c3)NCCN4)CC2)cc1C` [Example 2, 6-[4-(3,4-Dimethylphenyl)piperazin-1-ylmethyl]-1,2,3,4-tetrahydroquinoxaline], the IC50 [1] was 1.6 nM and the “blockade of apomorphine-induced disruption of prepulse inhibition in the Acoustic Startle test” value [2] was “significant blockade”.
